In the supplement of paper PMC10331698:
± gives the standard deviation of the averaged measurements.

Legend:
Experiment in all cases: level (log10 ratio to DMSO vehicle control); higher = higher biomarker level / cell amount than vehicle control
[1] = compound: NS(=O)(=O)C(F)(F)C(F)(F)C(F)(F)C(F)(F)C(F)(F)C(F)(F)C(F)(F)C(F)(F)F [Perfluorooctanesulfonamide] (in DMSO)
Method: (§1)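 BioMAP Diversity Plus panel of 12 human primary cell co-culture systems (3C, 4H, LPS, SAg, BT, BF4T, BE3C, CASM3C, HDF3CGF, KF3CT, MyoF, Mphg). Compounds were added 1 h before stimulation and left for 24 h (MyoF 48 h; BT 72 h for soluble read-outs or 6 d for IgG). Biomarkers were read by ELISA, cytotoxicity by SRB, PBMC viability and proliferation by Alamar Blue. Each well value was divided by the mean of 8 DMSO control wells on the same plate and log10 transformed; duplicate blinded samples were tested at 4 concentrations.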

[2] = compound: OCC(F)(F)C(F)(F)C(F)(F)C(F)(F)C(F)(F)C(F)(F)CO [1H,1H,8H,8H-Perfluorooctane-1,8-diol] (in DMSO)
Method: as §1

Octafluoroadipic acid = compound: O=C(O)C(F)(F)C(F)(F)C(F)(F)C(F)(F)C(=O)O [Octafluoroadipic acid] (in DMSO)
Method: as §1

[3] = compound: CO[Si](C)(CCC(F)(F)C(F)(F)C(F)(F)C(F)(F)C(F)(F)C(F)(F)F)OC [Dimethoxymethyl((perfluorohexyl)ethyl)silane] (in DMSO)
Method: as §1

[4] = compound: O=S(=O)(O)C(F)(F)C(F)(F)OC(F)(F)C(F)(F)F [Perfluoro(2-ethoxyethane)sulfonic acid] (in DMSO)
Method: as §1

[5] = compound: O=C(O)C(F)(OC(F)(F)C(F)(OC(F)(F)C(F)(OC(F)(F)C(F)(F)C(F)(F)F)C(F)(F)F)C(F)(F)F)C(F)(F)F [Perfluoro-(2,5,8-trimethyl-3,6,9-trioxadodecanoic)acid] (in DMSO)
Method: as §1

[6] = compound: O=C(O)C(F)(OC(F)(F)C(F)(F)C(F)(F)F)C(F)(F)F [Ammonium perfluoro-2-methyl-3-oxahexanoate] (in Water)
Method: as §1

Test System	level (log10) ([1]; 6700 nM)	level (log10) ([1]; 20000 nM)	level (log10) ([2]; 6700 nM)	level (log10) ([2]; 20000 nM)	level (log10) ([2]; 60000 nM)	level (log10) (Octafluoroadipic acid; 6700 nM)	level (log10) (Octafluoroadipic acid; 20000 nM)	level (log10) (Octafluoroadipic acid; 60000 nM)	level (log10) ([3]; 6700 nM)	level (log10) ([3]; 20000 nM)	level (log10) ([4]; 6700 nM)	level (log10) ([4]; 20000 nM)	level (log10) ([4]; 60000 nM)	level (log10) ([5]; 1100 nM)	level (log10) ([5]; 3300 nM)	level (log10) ([5]; 10000 nM)	level (log10) ([6]; 6700 nM)	level (log10) ([6]; 20000 nM)	level (log10) ([6]; 60000 nM)
LPS:CCL2/MCP-1	-0.0035 ± 0.013	0.0165 ± 0.0021	-0.004 ± 0.018	-0.0115 ± 0.018	-0.0135 ± 0.036	-0.0015 ± 0.044	-0.0045 ± 0.026	0.0205 ± 0.0078	-0.0155 ± 0.028	0.013 ± 0.048	0.012 ± 0.0057	0.021 ± 0.0071	0.032 ± 0.035	-0.0105 ± 0.022	-0.014 ± 0.0042	-0.002 ± 0.0099	0.0325 ± 0.033	-0.017 ± 0.023	-0.001 ± 0.0014
LPS:CD40	-0.0635 ± 0.018	-0.115 ± 0.0042	-0.031 ± 0.0057	-0.0375 ± 0.032	-0.0555 ± 0.049	-0.0035 ± 0.04	-0.005 ± 0.0071	-0.0245 ± 0.0064	-0.0085 ± 0.029	-0.009 ± 0.025	0.0515 ± 0.016	0.022 ± 0.0028	0.047 ± 0.016	0.04 ± 0.1	0.0475 ± 0.015	0.007 ± 0.055	-0.014 ± 0.018	-0.0145 ± 0.016	-0.045 ± 0.03
LPS:CD62E/E-Selectin	-0.015 ± 0.023	0.018 ± 0.016	-0.0495 ± 0.013	-0.0295 ± 0.022	-0.044 ± 0.024	0.002 ± 0.023	-0.008 ± 0.0057	0.0085 ± 0.022	0.0135 ± 0.011	0.01 ± 0.0099	0.0105 ± 0.022	0.0215 ± 0.019	0.0275 ± 0.0078	-0.002 ± 0.0099	-0.0115 ± 0.005	-0.0135 ± 0.0035	-0.0115 ± 0.0078	-0.005 ± 0.016	-0.004 ± 0.0085
LPS:CD69	-0.0475 ± 0.0064	-0.13	0.014 ± 0.0099	-0.006 ± 0.045	-0.0125 ± 0.028	0.0545 ± 0.076	0.0595 ± 0.047	0.0515 ± 0.064	-0.046 ± 0.013	-0.0265 ± 0.0092	0.0305 ± 0.04	-0.007 ± 0.027	-0.023 ± 0.068	-0.021 ± 0.0014	-0.0255 ± 0.0078	-0.007	0.03 ± 0.0028	0 ± 0.028	-0.0315 ± 0.04
LPS:CD106/VCAM-1	0.0075 ± 0.0035	0.0115 ± 0.016	-0.008 ± 0.0057	-0.011 ± 0.023	-0.0275 ± 0.018	-0.0235 ± 0.037	-0.0175 ± 0.025	-0.017 ± 0.048	-0.0105 ± 0.04	0.0095 ± 0.0035	0.013 ± 0.034	-0.007 ± 0.033	0.0165 ± 0.049	-0.009 ± 0.0099	-0.0005 ± 0.0021	-0.006 ± 0.0057	-0.0285 ± 0.016	-0.016 ± 0.0071	-0.0195 ± 0.011
LPS:CD141/Thrombomodulin	0.037 ± 0.072	0.0785 ± 0.066	-0.008 ± 0.027	-0.032 ± 0.0042	0.028 ± 0.034	-0.014 ± 0.0014	-0.0135 ± 0.028	0.006 ± 0.014	0.024 ± 0.034	0.006 ± 0.016	0.067 ± 0.0085	0.057 ± 0.055	0.051 ± 0.072	-0.019 ± 0.0028	-0.002 ± 0.0042	0.0005 ± 0.0021	-0.013 ± 0.031	-0.0025 ± 0.0092	-0.036 ± 0.028
LPS:CD142/Tissue Factor	-0.024 ± 0.047	-0.043 ± 0.0071	0.011 ± 0.1	0.0075 ± 0.033	-0.0095 ± 0.054	-0.0105 ± 0.022	0.02 ± 0.034	0.0215 ± 0.0078	0.011 ± 0.048	0.017 ± 0.058	0.0685 ± 0.042	0.1 ± 0.057	0.0485 ± 0.093	0.0115 ± 0.013	-0.011 ± 0.021	0.022 ± 0.0085	0.0885 ± 0.064	0.0845 ± 0.028	0.075 ± 0.045
LPS:CXCL8/IL-8	0.005 ± 0.016	-0.008 ± 0.0014	-0.0075 ± 0.011	-0.0305 ± 0.0064	-0.0125 ± 0.021	0.0015 ± 0.032	-0.0035 ± 0.054	0.0415 ± 0.1	0.0325 ± 0.03	0.065 ± 0.0071	0.0585 ± 0.025	0.108 ± 0.07	0.21 ± 0.04	0.0045 ± 0.016	-0.0045 ± 0.0064	0.0095 ± 0.0021	0.023 ± 0.031	0.0895 ± 0.016	0.131 ± 0.017
LPS:IL-1alpha	-0.0195 ± 0.025	-0.013 ± 0.0071	-0.0355 ± 0.049	-0.064 ± 0.016	-0.004 ± 0.017	-0.003 ± 0.0028	0.017 ± 0.045	0.029 ± 0.047	0.005 ± 0.03	0.0235 ± 0.0092	0.026 ± 0.025	0.044 ± 0.016	0.011 ± 0.027	0.0135 ± 0.00071	-0.0305 ± 0.023	-0.005 ± 0.059	0.0325 ± 0.04	0.0475 ± 0.015	0.019 ± 0.062
LPS:M-CSF	-0.0035 ± 0.032	0.05 ± 0.04	-0.0285 ± 0.019	-0.025 ± 0.017	-0.013 ± 0.048	0.002 ± 0.0099	0.0175 ± 0.023	0.0005 ± 0.00071	-0.022 ± 0.017	0.025 ± 0.041	-0.0095 ± 0.059	0.026 ± 0.028	-0.0085 ± 0.032	-0.005 ± 0.02	0.0145 ± 0.035	0.022 ± 0.023	-0.02 ± 0.024	-0.009 ± 0.016	-0.0045 ± 0.005
LPS:SRB	0.009 ± 0.0057	-0.0625 ± 0.0078	0.0005 ± 0.0092	-0.003 ± 0.0014	-0.0035 ± 0.023	0.0015 ± 0.0064	0.004 ± 0.0085	-0.0055 ± 0.0064	-0.0025 ± 0.0064	0.003 ± 0.0085	-0.0175 ± 0.0021	-0.012	-0.0145 ± 0.0064	-0.008 ± 0.0042	-0.0125 ± 0.005	-0.001 ± 0.0085	-0.009 ± 0.0028	-0.0075 ± 0.00071	-0.009 ± 0.0014
LPS:sPGE2	0.07 ± 0.011	0.0945 ± 0.012	-0.0255 ± 0.012	0.022 ± 0.0057	-0.0015 ± 0.016	-0.002 ± 0.044	-0.023 ± 0.0028	-0.014 ± 0.017	0 ± 0.042	-0.0145 ± 0.035	0 ± 0.028	-0.0545 ± 0.03	-0.001 ± 0.011	0.0385 ± 0.032	0.011 ± 0.031	-0.012 ± 0.047	0.093 ± 0.061	0.0575 ± 0.039	0.0765 ± 0.018
LPS:sTNF-alpha	0.007 ± 0.0042	-0.0245 ± 0.00071	-0.123 ± 0.074	-0.145 ± 0.041	-0.146 ± 0.018	-0.0035 ± 0.0035	0.0155 ± 0.005	0.0125 ± 0.018	-0.0025 ± 0.0078	-0.0045 ± 0.0078	0.011 ± 0.0057	-0.0005 ± 0.0035	-0.0005 ± 0.0092	0.0035 ± 0.022	-0.001 ± 0.016	0.001 ± 0.02	-0.068 ± 0.021	-0.0375 ± 0.043	-0.0225 ± 0.033
SAg:CCL2/MCP-1	-0.0125 ± 0.021	0.0075 ± 0.015	-0.0075 ± 0.00071	-0.015 ± 0.0071	-0.0085 ± 0.00071	-0.014 ± 0.02	-0.0135 ± 0.0035	0.0015 ± 0.018	-0.0215 ± 0.00071	-0.0145 ± 0.0064	0.0065 ± 0.0078	0.0055 ± 0.011	0.0145 ± 0.019	-0.0025 ± 0.018	-0.0055 ± 0.0035	0.0195 ± 0.025	-0.0245 ± 0.04	0.004 ± 0.017	0.0305 ± 0.059
SAg:CD38	-0.006 ± 0.0071	-0.089 ± 0.016	-0.0105 ± 0.011	-0.003 ± 0.02	-0.013 ± 0.0028	-0.0415 ± 0.023	-0.026 ± 0.017	-0.0265 ± 0.0021	0.0075 ± 0.018	0.014 ± 0.0028	-0.0005 ± 0.03	-0.004 ± 0.023	-0.0125 ± 0.016	-0.0115 ± 0.0021	-0.011 ± 0.021	-0.005 ± 0.014	0.003 ± 0.011	0.008 ± 0.0085	-0.0055 ± 0.019
